From US20240270751A1, “Pyrazolopyridinone Compounds” (BeiGene Ltd., priority 2021, published 2024)

Key:
DGKζ = DGKζ (Homo sapiens (Human), UniProt Q13574); experiment: Biochemical DGK IC50 assay, DGKζ ADP-Glo assay; conditions: 0.5 nM enzyme, 140 μM ATP, 80 μM DAG; read-out: DGKζ ADP-Glo assay IC50
How it was run: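 Full-length human DGKζ, His-TEV tagged and purified from baculovirus-infected Sf9 cells, assayed by ADP-Glo with DAG/PS lipid micelle substrate prepared in 25 mM HEPES pH 7.0 with octyl glucoside. Final compound concentrations spanned 1.55–10000 nM or 23.3–150000 nM.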

DGKα = DGKα (Homo sapiens (Human), UniProt P23743); experiment: Biochemical DGK IC50 assay, DGKα ADP-Glo assay; conditions: 7.5 nM enzyme, 140 μM ATP, 80 μM DAG
How it was run: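 ADP-Glo read-out with full-length DGKα on DAG/PS lipid micelle substrate in 25 mM HEPES pH 7.0, 0.5 mM EDTA, 160 mM octyl β-D-glucopyranoside. Compound final concentrations spanned 1.55˜10000 nM or 23.3˜150000 nM.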

Chain of DGKζ (Q13574 other isoform, or with tags, fused parts or gaps): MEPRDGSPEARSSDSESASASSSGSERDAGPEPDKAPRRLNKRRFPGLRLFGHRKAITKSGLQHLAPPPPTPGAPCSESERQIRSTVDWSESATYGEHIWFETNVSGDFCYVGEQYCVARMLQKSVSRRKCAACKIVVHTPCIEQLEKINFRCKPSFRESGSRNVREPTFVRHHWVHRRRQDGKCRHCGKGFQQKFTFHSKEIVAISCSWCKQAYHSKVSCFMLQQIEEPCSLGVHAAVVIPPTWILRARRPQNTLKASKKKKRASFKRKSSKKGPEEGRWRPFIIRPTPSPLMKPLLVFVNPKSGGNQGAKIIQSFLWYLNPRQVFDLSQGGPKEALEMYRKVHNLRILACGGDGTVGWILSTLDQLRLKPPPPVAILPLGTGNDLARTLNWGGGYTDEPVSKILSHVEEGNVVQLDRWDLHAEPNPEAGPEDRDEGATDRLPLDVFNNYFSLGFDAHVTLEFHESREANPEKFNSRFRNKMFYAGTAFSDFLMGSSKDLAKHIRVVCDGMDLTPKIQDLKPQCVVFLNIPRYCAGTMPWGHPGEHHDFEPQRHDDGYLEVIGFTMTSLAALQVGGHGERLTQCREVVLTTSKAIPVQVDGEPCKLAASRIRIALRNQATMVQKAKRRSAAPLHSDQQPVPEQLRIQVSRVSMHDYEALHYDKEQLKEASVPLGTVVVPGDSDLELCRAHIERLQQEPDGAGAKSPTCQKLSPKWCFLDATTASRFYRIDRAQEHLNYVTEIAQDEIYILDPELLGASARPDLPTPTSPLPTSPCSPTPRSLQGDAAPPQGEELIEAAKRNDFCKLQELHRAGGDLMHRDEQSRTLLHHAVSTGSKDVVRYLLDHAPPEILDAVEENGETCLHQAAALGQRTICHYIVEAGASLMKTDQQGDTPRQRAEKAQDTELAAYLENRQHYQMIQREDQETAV
Chain of DGKα (P23743 whole entry): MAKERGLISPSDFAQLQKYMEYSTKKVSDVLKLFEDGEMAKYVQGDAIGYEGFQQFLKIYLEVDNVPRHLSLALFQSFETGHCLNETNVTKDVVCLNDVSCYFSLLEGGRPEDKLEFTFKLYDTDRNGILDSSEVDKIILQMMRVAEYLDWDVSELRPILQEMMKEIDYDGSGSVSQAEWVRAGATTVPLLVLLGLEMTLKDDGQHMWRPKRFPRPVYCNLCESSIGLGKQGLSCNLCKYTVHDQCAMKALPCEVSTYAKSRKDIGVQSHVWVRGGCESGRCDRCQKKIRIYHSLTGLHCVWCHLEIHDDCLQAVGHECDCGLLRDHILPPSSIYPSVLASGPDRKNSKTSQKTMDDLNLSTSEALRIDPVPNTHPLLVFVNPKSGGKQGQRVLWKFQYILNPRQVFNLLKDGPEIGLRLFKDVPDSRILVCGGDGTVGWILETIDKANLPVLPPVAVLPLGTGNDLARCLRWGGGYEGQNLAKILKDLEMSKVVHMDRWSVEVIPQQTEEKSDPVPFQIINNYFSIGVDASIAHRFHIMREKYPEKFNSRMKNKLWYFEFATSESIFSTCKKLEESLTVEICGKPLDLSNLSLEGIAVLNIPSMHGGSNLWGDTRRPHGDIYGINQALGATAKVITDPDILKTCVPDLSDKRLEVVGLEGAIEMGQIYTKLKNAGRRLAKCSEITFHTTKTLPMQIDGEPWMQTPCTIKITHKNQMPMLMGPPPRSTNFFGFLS

SMILES	IC50 (DGKζ)	IC50 (DGKα)
COc1ccc(C(C)N2C[C@H](C)N(c3cc(=O)n(C)c4cn(CC#N)nc34)C[C@H]2C)cc1 (stereo partly drawn) [Compound A38]	610 nM	899 nM
CC[C@H]1CN(C(C)c2ccc(C)cc2C(F)(F)F)[C@H](CC)CN1c1cc(=O)n(C)c2cn(CC#N)nc12 (single isomer, unassigned) [Compound A115a]	> 10000 nM	> 10000 nM
CC[C@H]1CN(C(C)c2cc(C(F)(F)F)nn2CC)[C@H](CC)CN1c1cc(=O)n(C)c2cn(CC#N)nc12 (stereo partly drawn) [Compound A210]	369 nM	11200 nM
C[C@@H]1CN(c2cc(=O)n(C)c3cn(CC#N)nc23)[C@@H](C)CN1C(c1ccc2nccnc2c1)C(F)F (stereo partly drawn) [Compound A262, 2-(7-((2S,5R)-4-(2,2-difluoro-1-(quinoxalin-6-yl)ethyl)-2,5-dimethylpiperazin-1-yl)-4-methyl-5-oxo-4,5-dihydro-2H-pyrazolo[4,3-b]pyridin-2-yl)acetonitrile]	150 nM	> 10000 nM
CC[C@H]1CN(C(C)c2ccc(F)nc2)[C@H](CC)CN1c1cc(=O)n(C)c2cn(CC#N)nc12 (single isomer, unassigned) [Compound A353b]	2490 nM	797 nM
CC(c1ccc2nccnc2c1)N1C[C@H](C)N(c2cc(=O)n(C)c3cn(C(C)C#N)nc23)C[C@H]1C (stereo partly drawn) [Compound A8]	570 nM	31000 nM
COc1c(C(C)N2C[C@H](C)N(c3cc(=O)n(C)c4cn(CC#N)nc34)C[C@H]2C)ccc(F)c1F (stereo partly drawn) [Compound A273]	5550 nM	> 10000 nM
CC[C@H]1CN(C(C)c2cccc(NC(C)=O)c2)[C@H](CC)CN1c1cc(=O)n(C)c2cn(CC#N)nc12 (stereo partly drawn) [Compound A109]	7850 nM	6170 nM
CC[C@H]1CN(C(C)c2cnc(C)cc2C(F)(F)F)[C@H](CC)CN1c1cc(=O)n(C)c2cn(CC#N)nc12 (stereo partly drawn) [Compound A235]	5380 nM	> 10000 nM
CC[C@H]1CN(C(C)c2ccc3nccnc3c2)[C@H](CC)CN1c1cc(=O)n(CCOC)c2cn(CC#N)nc12 (stereo partly drawn) [Compound A96, 2-(7-((2S,5R)-2,5-diethyl-4-(1-(quinoxalin-6-yl)ethyl)piperazin-1-yl)-4-(2-methoxyethyl)-5-oxo-4,5-dihydro-2H-pyrazolo[4,3-b]pyridin-2-yl)acetonitrile]	255 nM	> 10000 nM
CC[C@@H]1CN(c2cc(=O)n(C)c3cn(CC#N)nc23)[C@@H](CC)CN1C(=O)c1ccc(C)cn1 [Compound A370]	> 10000 nM	363 nM
C[C@@H]1CN(c2c(Cl)c(=O)n(C)c3cn(CC#N)nc23)[C@@H](C)CN1[C@@H](C)c1ccc2nccnc2c1 [Compound A133, 2-(6-chloro-7-((2S,5R)-2,5-dimethyl-4-((S)-1-(quinoxalin-6-yl)ethyl)piperazin-1-yl)-4-methyl-5-oxo-4,5-dihydro-2H-pyrazolo[4,3-b]pyridin-2-yl)acetonitrile]	9390 nM	> 10000 nM
Cc1c2c(nn1CC#N)c(N1C[C@@H](C)N(C(C)c3ccc(F)cc3C(F)(F)F)C[C@@H]1C)nc(=O)n2C (single isomer, unassigned) [Compound A267a]	> 10000 nM	> 10000 nM
Cc1cnc2ccc([C@H](C)N3C[C@H](C)N(c4c(F)c(=O)n(C)c5cn(CC#N)nc45)C[C@H]3C)cc2n1 [Compound A317, 2-(7-((2S,5R)-2,5-dimethyl-4-((S)-1-(3-methylquinoxalin-6-yl)ethyl)piperazin-1-yl)-6-fluoro-4-methyl-5-oxo-4,5-dihydro-2H-pyrazolo[4,3-b]pyridin-2-yl)acetonitrile]	21 nM	8650 nM
CC[C@H]1CN(C(C)c2ccc(C(F)(F)F)nc2)[C@H](CC)CN1c1cc(=O)n(C)c2cn(CC#N)nc12 (single isomer, unassigned) [Compound A135a]	97 nM	398 nM
CC#CCn1cc2c(n1)c(N1C[C@@H](CC)N(C(C)c3ccc4cccnc4c3)C[C@@H]1C)cc(=O)n2C (stereo partly drawn) [Compound A395]	272 nM	222 nM
CC[C@H]1CN(C(C)c2ccc(OCC3COC3)cc2)[C@H](CC)CN1c1cc(=O)n(C)c2cn(CC#N)nc12 (stereo partly drawn) [Compound A379]	571 nM	294 nM
CC[C@H]1CN(C(C)c2ccc(C)cc2F)[C@H](CC)CN1c1cc(=O)n(C)c2cn(CC#N)nc12 (stereo partly drawn) [Compound A340]	248 nM	485 nM

SMILES	IC50 (DGKζ)	IC50 (DGKα)
CC[C@H]1CN(C(C)c2c(C)cnn2CC)[C@H](CC)CN1c1cc(=O)n(C)c2cn(CC#N)nc12 (single isomer, unassigned) [Compound A227a]	> 10000 nM	> 10000 nM
CC[C@H]1CN(C(C)c2cnn(C)c2C(F)F)[C@H](CC)CN1c1cc(=O)n(C)c2cn(CC#N)nc12 (stereo partly drawn) [Compound A234]	159 nM	7330 nM
CCc1c(C(C)N2C[C@H](CC)N(c3cc(=O)n(C)c4cn(CC#N)nc34)C[C@H]2CC)cnn1C (single isomer, unassigned) [Compound A213a]	1360 nM	> 10000 nM
CC(c1ccc2nccnc2c1)N1C[C@H](C)N(c2cc(=O)n(C)c3cn(C4(C#N)CC4)nc23)C[C@H]1C (stereo partly drawn) [Compound A16, 1-(7-((2S,5R)-2,5-dimethyl-4-(1-(quinoxalin-6-yl)ethyl)piperazin-1-yl)-4-methyl-5-oxo-4,5-dihydro-2H-pyrazolo[4,3-b]pyridin-2-yl)cyclopropane-1-carbonitrile]	4200 nM	9600 nM
CC[C@H]1CN(C(C)c2cnc3ccccc3n2)[C@H](CC)CN1c1cc(=O)n(C)c2cn(CC#N)nc12 (stereo partly drawn) [Compound A55]	9 nM	22 nM
C=C(C)n1cc2c(n1)c(N1C[C@@H](C)N(Cc3ccc(OC(F)(F)F)cc3)C[C@@H]1C)cc(=O)n2C [Compound A26, 7-((2S,5R)-2,5-dimethyl-4-(4-(trifluoromethoxy)benzyl)piperazin-1-yl)-4-methyl-2-(prop-1-en-2-yl)-2,4-dihydro-5H-pyrazolo[4,3-b]pyridin-5-one]	98000 nM	4.3 nM
CC[C@H]1CN(C(C)c2cnn(C)c2C(F)(F)F)[C@H](CC)CN1c1cc(=O)n(C)c2cn(CC#N)nc12 (stereo partly drawn) [Compound A233, 2-(7-((2S,5R)-2,5-diethyl-4-(1-(1-methyl-5-(trifluoromethyl)-1H-pyrazol-4-yl)ethyl)piperazin-1-yl)-4-methyl-5-oxo-4,5-dihydro-2H-pyrazolo[4,3-b]pyridin-2-yl)acetonitrile]	33 nM	6980 nM
CC[C@H]1CN(C(C)c2ccc(C(F)(F)F)cc2F)[C@H](CC)CN1c1cc(=O)n(C)c2cn(CC#N)nc12 (single isomer, unassigned) [Compound A69a]	25 nM	130 nM
CC[C@@H]1CN(c2cc(=O)n(C)c3cn(CC#N)nc23)CCN1C(C)c1ccc2nccnc2c1 (single isomer, unassigned) [Compound A161a]	> 10000 nM	> 10000 nM
CC[C@H]1CN(C(C)c2ccccc2OC(F)(F)F)[C@H](CC)CN1c1cc(=O)n(C)c2cn(CC#N)nc12 (stereo partly drawn) [Compound A80]	663 nM	> 10000 nM
CC[C@H]1CN(C(C)c2ccccc2NC(C)=O)[C@H](CC)CN1c1cc(=O)n(C)c2cn(CC#N)nc12 (stereo partly drawn) [Compound A165]	2840 nM	> 10000 nM
CC#CCn1cc2c(n1)c(N1C[C@@H](C)N([C@@H](C)c3ccc4ncc(C)nc4c3)C[C@@H]1C)cc(=O)n2C [Compound A336]	60 nM	1570 nM
CC[C@H]1CN(C(C)c2ccc(C3CC3)cc2OC)[C@H](CC)CN1c1cc(=O)n(C)c2cn(CC#N)nc12 (single isomer, unassigned) [Compound A199b]	803 nM	> 10000 nM
CC[C@H]1CN(C(C)c2ccccc2C(F)(F)F)[C@H](CC)CN1c1cc(=O)n(C)c2cn(CC#N)nc12 (single isomer, unassigned) [Compound A197b]	169 nM	> 10000 nM
CC[C@H]1CN(C(C)c2ccc(C(C)(C)C#N)cc2F)[C@H](CC)CN1c1cc(=O)n(C)c2cn(CC#N)nc12 (stereo partly drawn) [Compound A345, 2-(4-(1-((2R,5S)-4-(2-(cyanomethyl)-4-methyl-5-oxo-4,5-dihydro-2H-pyrazolo[4,3-b]pyridin-7-yl)-2,5-diethylpiperazin-1-yl)ethyl)-3-fluorophenyl)-2-methylpropanenitrile]	205 nM	852 nM
CC[C@H]1CN(C(C)c2ccc3nccnc3c2)[C@H](CC)CN1c1cc(=O)n(CC)c2cn(CC#N)nc12 (stereo partly drawn) [Compound A47, 2-(7-((2S,5R)-2,5-diethyl-4-(1-(quinoxalin-6-yl)ethyl)piperazin-1-yl)-4-ethyl-5-oxo-4,5-dihydro-2H-pyrazolo[4,3-b]pyridin-2-yl)acetonitrile]	9.3 nM	4200 nM
CC(c1ccc2nccnc2c1)N1C[C@H](C)N(c2cc(=O)n(C)c3cn(CCN(C)C)nc23)C[C@H]1C (stereo partly drawn) [Compound A11]	> 150000 nM	> 150000 nM
CC[C@H]1CN(C(C)c2ccc(C3CC3)cc2OC)[C@H](CC)CN1c1cc(=O)n(C)c2cn(CC#N)nc12 (single isomer, unassigned) [Compound A199a]	2460 nM	> 10000 nM
